# Results taken from patent US20090286839A1, “PHYTONUTRIENT COMPOSITIONS FROM MUSHROOMS OR FILAMENTOUS FUNGI AND METHODS OF USE” (priority 2006, published 2009).
# Assays:
# cortical neurons = assay: 2% Low Serum Assay, neuronal viability by MTT method; format: cell-based, chicken
# Experimental: Lohman or Hisex Brown chicken one-day-old fertilized eggs were obtained and stored in a lab under appropriate conditions of 12° C. and 80% humidity. At embryonic day 0 eggs were transferred into a breeding incubatore and stored under permanent turning until embryonic day 9 at 37.8° C. and 55% humidity. For isolation of neurons 4 to 6 chicken embryos were used per experiment. Neurons were plated out and nerve cells maintained in a nutrition medium at 37° C., 97% humidity, and 5% CO2.
# Test Item (T.I.) and Reference Item (R.I.) were administered at the start of the experiments for 8 days. Neurons were maintained in the same medium without change or addition of media until the end of the experiments. During the whole culture period of 8 days cells stay in an incubator at 37° C., 97% humidity, and 5% CO2.
# From T.I.1, L-Ergothioneine a 128 mM solution was prepared in medium and directly added to the cells at the start of the experiments for a total of 8 days. […] The pellet was discarded and only from the supernatant 1.25 μl up to 160 μl/ml medium was administered. R.I.2. the neurotrophic standard NTS is a ready to use injection solution and was applied in concentrations from 1.25 μl up ro 160 μl/ml medium. The stock-solution for R.I.3, Trolox, was made in a concentration of 2 mM in PBS and the appropriate concentrations added to the cells at day 1.
# To the isolated nerve cell T.I.1 was added in a dose range of 0.5, 1, 2, 4, 8, 16, 32, 64 mM. The supernatant of R.I.1 and the ready to use injection solution of R.I.2 were applied in the concentration 1.25, 2.5, 5, 10, 20, 40, 80, 160 μl/ml medium. R.I.3 was tested in the concentrations of 1, 2, 4, 8, 16, 31.25, 62.5, 125 μM. Experiments were performed at two different days, whereby on each day two identical microplates were prepared with two to four wells per T.I. or R.I. (n=8). In this 2% cell stress assay substances were administered at start of the experiment (day 1 in vitro) for the whole experimental period that means for eight days in vitro.
# Neuronal viability of cultures was determined with the MTT-assay using a plate-reader (570 nm) as described in SOP MET009. The MTT-assay is a sensitive assay measuring the mitochondrial dehydrogenase activity in viable cells only. It is performed according to the method described by Mosmann, J. Immunol. Meth., 1983, 55-63. This assay is based on the reduction of yellow MTT (3-(4,5-dimethylthiazol-2-yl)-2,5,diphenyl tetrazolium bromide), to dark blue formazan crystals by mitochondrial dehydrogenases (succinate dehydrogenase). Since this reaction is catalyzed in living cells only the assay can be used for the quantification of cell viability.
# For the determination of cell viability MTT solution was added to each well in a final concentration of 0.5 mg/ml. After 2 hours the MTT containing medium was aspired. Cells were lysed with 3% SDS, formazan crystals dissolved in isopropanol/HCI. To estimate optical density a plate reader (Anthos HT II) was used at wavelength 570 nm. Neuronal viability is expressed as optical densities (ODs).
# [1] = Peroxynitrite radical averting capacity (NORAC) assay; format: biochemical; conditions: pure ERG
# Experimental: The NORAC assay was modified on a previously reported method. All data was expressed as micromoles of Trolox equivalents (TE) equivalents per gram of dry weight (μmol of TE/g dw). The freeze-dried forms of the mushrooms were used for testing and then the data was converted to a FW basis according to the dry weight of the fresh mushroom samples, which were obtained from one crop. For each analysis, triplicate extractions were performed and used for analysis.
# Under physiological conditions, the formation of ONOO^− can easily result due to the cellular production and interaction of nitric oxide and superoxide radicals. Damage to protein, especially aromatic compounds can result from ONOO^−. A limited number of papers have been published regarding the antioxidant capacity against ONOO^−. The NORAC assay is a relatively new assay. SIN-1 is used in the NORAC assay, which when heated decomposes to produce ONOO^−. DHR-123 (non-fluorescent) is used as the probe, which becomes oxidized by the presence of ONOO^− to become rhodamine 123 (fluoresces). If antioxidants present in the sample are able to scavenge ONOO^−, a delay in fluorescence will occur due to the protection of the probe offered by the antioxidant. Generally, compounds that can scavenge ONOO^− will provide high NORAC values. […]
# [2] = Hydrophilic ORACFL assay (ORAChydro); format: biochemical; conditions: pure ERG
# Source text: The lipophilic ORACFL assay (ORAClipo) was based on a previous reported method. Hydrophilic ORACFL assay (ORAChydro) was based on a previous reported method. All data was expressed as micromoles of Trolox equivalents (TE) per gram of dry weight (μmol TE/g dw). The freeze-dried forms of the mushrooms were used for testing and the data was reported as dry weight. When reporting amount per serving, the data was converted to a fresh weight basis according to the dry weight of the fresh mushroom samples. For each analysis, triplicate extractions were performed from one crop and used for analysis. ORACtotal was determined by calculating the sum of ORAClipo and ORAChydro results.
# [3] = Hydroxyl radical averting capacity (HORAC) assay; format: biochemical; conditions: pure ERG
# Source text: The HORAC assay was based on a previously reported method, however caffeic acid (CA) was used as the standard due to CA providing a wider linear range as compared to gallic acid. All data was expressed as micromoles of caffeic acid equivalents (CAE) equivalents per gram of dry weight (μmol CAE/g dw). The freeze-dried forms of the mushrooms were used for testing and the data was reported as dry weight. When reporting amount per serving, the data was converted to a fresh weight basis according to the dry weight of the fresh mushroom samples. For each analysis, triplicate extractions were performed from one crop and used for analysis.
# HO. radicals are highly reactive and can be generated via the Fenton reaction. Due to the fact that HO. radicals are short lived with a high rate constant, it is unlikely that antioxidants present at biological concentrations will be able to scavenge the HO radical. However antioxidants, which are able to act as metal chelators, may be able to prevent the formation of the HO. radical, thus acting as a preventative antioxidant. The HORAC assays measures the ability of the antioxidant present to chelate Co(II) prior to the Fenton reaction cocurring. HORAC values ranged between 3.0-13.6 μmole CAE/g dw. There was a significant difference found within the different A. bisporus mushrooms. […]
# [4] = Super-oxide radical averting capacity (SORAC) assay; format: biochemical; conditions: pure ERG
# Source text: SORAC assays were based on the previously described method by Zhao and coworkers. Simply, hydroethidine was used as a probe in measuring O2^− scavenging capacity. […] Addition of SOD inhibits the hydroethidine oxidation. All data was expressed as superoxide equivalents per gram of dry weight (kunitSOD eq/g dw). The freeze-dried forms of the mushrooms were used for testing and the data was reported as dry weight. When reporting amount per serving, the data was converted to a fresh weight basis according to the dry weight of the fresh mushroom samples. For each analysis, triplicate extractions from one crop were performed and used for analysis.
# Another biological relevant free radical is O2^− which is less reactive than HO., however O2^− does react very quickly with certain radicals, such as nitric oxide. The SORAC assay is a newly developed assay. Hydroethidine (nonfluorescent) is used as the probe, which is oxidized (fluoresces) in the presence of O2^− that is generated from a xanthine and xanthine oxidase mixture. If antioxidants present in the sample are able to scavenge O2^−, a delay in fluorescence will occur due to the protection of the probe offered by the antioxidant. Generally, compounds that can scavenge O2^− will provide high SORAC values. […]
# [5] = cited from earlier work
# [6] = Lohman or Hisex Brown, chicken, 8 days
# [7] = 0.5 mM, addition at 1DIV, 8 days, n=8
# [8] = 1 mM, addition at 1DIV, 8 days, n=8
# [9] = 2 mM, addition at 1DIV, 8 days, n=8
# [10] = 4 mM, addition at 1DIV, 8 days, n=8
# [11] = 8 mM, addition at 1DIV, 8 days, n=8
# [12] = 16 mM, addition at 1DIV, 8 days, n=8
# [13] = 32 mM, addition at 1DIV, 8 days, n=8
# [14] = 64 mM, addition at 1DIV, 8 days, n=8
# [15] = Gallus gallus, Cortical neurone, 192 h, read-out: viability, mean in % (control is 100%)
compound,measurement,setting,value
COc1c(O)cc2oc3cc(O)c(CC=C(C)C)c(O)c3c(=O)c2c1CC=C(C)C [Mangostin],"viability, mean optical density","cortical neurons; 1.25 μl/ml, addition at 1DIV, 8 days, n=8",0.051 OD
same,"viability, mean optical density","cortical neurons; 2.5 μl/ml, addition at 1DIV, 8 days, n=8",0.052 OD
same,"viability, mean optical density","cortical neurons; 5 μl/ml, addition at 1DIV, 8 days, n=8",0.053 OD
same,"viability, mean optical density","cortical neurons; 10 μl/ml, addition at 1DIV, 8 days, n=8",0.076 OD
same,"viability, mean optical density","cortical neurons; 20 μl/ml, addition at 1DIV, 8 days, n=8",0.064 OD
same,"viability, mean optical density","cortical neurons; 40 μl/ml, addition at 1DIV, 8 days, n=8",0.057 OD
same,"viability, mean optical density","cortical neurons; 80 μl/ml, addition at 1DIV, 8 days, n=8",0.059 OD
same,"viability, mean optical density","cortical neurons; 160 μl/ml, addition at 1DIV, 8 days, n=8",0.065 OD
same,maximum neuronal viability (% of untreated control),cortical neurons; [6],155%
same,"viability, mean in % (control is 100%)","cortical neurons; Lohman or Hisex Brown, chicken, 8 days, 1.25 μl/ml",93.86%
same,"viability, mean in % (control is 100%)","cortical neurons; Lohman or Hisex Brown, chicken, 8 days, 2.5 μl/ml",95.97%
same,"viability, mean in % (control is 100%)","cortical neurons; Lohman or Hisex Brown, chicken, 8 days, 5 μl/ml",98.32%
same,"viability, mean in % (control is 100%)","cortical neurons; Lohman or Hisex Brown, chicken, 8 days, 10 μl/ml",142.18%
same,"viability, mean in % (control is 100%)","cortical neurons; Lohman or Hisex Brown, chicken, 8 days, 20 μl/ml",155.61%
same,"viability, mean in % (control is 100%)","cortical neurons; Lohman or Hisex Brown, chicken, 8 days, 80 μl/ml",109.66%
same,"viability, mean in % (control is 100%)","cortical neurons; Lohman or Hisex Brown, chicken, 8 days, 160 μl/ml",120.33%
"C[N+](C)(C)[C@@H](Cc1c[nH]c(=S)[nH]1)C(=O)[O-] [Ergo, L-ergothioneine]",NORAC value of ERG,[1],407 μmole TE/g
same,ORAChydro value of ERG,[2],"6,440 μmole TE/g"
same,"viability, mean in % (control is 100%)",cortical neurons; [7],98.13%
same,"viability, mean optical density",cortical neurons; [7],0.053 OD
same,"viability, mean in % (control is 100%)",cortical neurons; [8],104.42%
same,"viability, mean optical density",cortical neurons; [8],0.057 OD
same,"viability, mean in % (control is 100%)",cortical neurons; [9],105.10%
same,"viability, mean optical density",cortical neurons; [9],0.057 OD
same,"viability, mean in % (control is 100%)",cortical neurons; [10],110.39%
same,"viability, mean optical density",cortical neurons; [10],0.060 OD
same,"viability, mean in % (control is 100%)",cortical neurons; [11],119.84%
same,"viability, mean optical density",cortical neurons; [11],0.065 OD
same,"viability, mean in % (control is 100%)",cortical neurons; [12],189.48%
same,"viability, mean optical density",cortical neurons; [12],0.103 OD
same,"viability, mean in % (control is 100%)",cortical neurons; [13],262.66%
same,"viability, mean optical density",cortical neurons; [13],0.153 OD
same,"viability, mean in % (control is 100%)",cortical neurons; [14],407.45%
same,"viability, mean optical density",cortical neurons; [14],0.221 OD
same,neuroprotective concentration range,"cortical neurons; 2% low serum, 8 days, MTT",≥ 4 mM
same,maximum neuronal viability (% of untreated control),"cortical neurons; 2% low serum, 8 days, MTT, best concentration tested",407%
same,HORAC value of ERG,[3],231 μmole CAE/g
same,SORAC value of ERG,[4],non-detectable
same,solubility in nonpolar solvents,[5]; nonpolar solvents,insoluble
same,water soluble up to,"[5]; water, room temperature",up to 0.9 M
"Cc1c(C)c2c(c(C)c1O)CCC(C)(C(=O)O)O2 (stereo not drawn) [Trolox, 6-Hydroxy-2,5,7,8-tetramethylchroman2-carboxylic acid]","viability, mean optical density","cortical neurons; 1 μM, addition at 1DIV, 8 days, n=8",0.052 OD
same,"viability, mean optical density","cortical neurons; 2 μM, addition at 1DIV, 8 days, n=8",0.056 OD
same,"viability, mean optical density","cortical neurons; 4 μM, addition at 1DIV, 8 days, n=8",0.058 OD
same,"viability, mean optical density","cortical neurons; 8 μM, addition at 1DIV, 8 days, n=8",0.076 OD
same,"viability, mean optical density","cortical neurons; 16 μM, addition at 1DIV, 8 days, n=8",0.180 OD
same,"viability, mean optical density","cortical neurons; 31.25 μM, addition at 1DIV, 8 days, n=8",0.297 OD
same,"viability, mean optical density","cortical neurons; 62.5 μM, addition at 1DIV, 8 days, n=8",0.338 OD
same,"viability, mean optical density","cortical neurons; 125 μM, addition at 1DIV, 8 days, n=8",0.262 OD
same,viability at 1 µM,cortical neurons; [15],97.8%
same,viability at 2 µM,cortical neurons; [15],102%
same,viability at 4 µM,cortical neurons; [15],107%
same,viability at 8 µM,cortical neurons; [15],140%
same,viability at 16 µM,cortical neurons; [15],331%
same,viability at 31.25 µM,cortical neurons; [15],546%
same,viability at 62.5 µM,cortical neurons; [15],620%
same,viability at 125 µM,cortical neurons; [15],482%
same,maximum neuronal viability (% of untreated control),cortical neurons; [6],620%
